Source: US6737383B1, “Herbicidal oxadiazolidines” (priority 1999, dated 2004)

Legend:
[1] = system: surinam grass; experiment: Test B pre/postemergence surinam grass; type: in vivo, Brachiaria decumbens
How it was run: (§1)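 Herbicidal effect was estimated by eye on a ten-point control scale after plants spent twelve to sixteen days in a greenhouse following soil or foliar treatment. Foliar sprays targeted plants at one to four leaves; all doses were formulated in a non-phytotoxic solvent with surfactant.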

[2] = system: cocklebur; experiment: Test B pre/postemergence cocklebur; type: in vivo, Xanthium strumarium
How it was run: as §1

[3] = system: corn; experiment: Test B pre/postemergence corn; type: in vivo, Zea mays
How it was run: as §1

[4] = system: crabgrass; experiment: Test B pre/postemergence crabgrass; type: in vivo, Digitaria sanguinalis
How it was run: as §1

[5] = system: giant foxtail; experiment: Test B pre/postemergence giant foxtail; type: in vivo, Setaria faberii
How it was run: as §1

[6] = system: morningglory; experiment: Test B pre/postemergence morningglory; type: in vivo, Ipomoea hederacea
How it was run: as §1

[7] = system: pigweed; experiment: Test B pre/postemergence pigweed; type: in vivo, Amaranthus retroflexus
How it was run: as §1

[8] = system: rape; experiment: Test B pre/postemergence rape; type: in vivo, Brassica napus
How it was run: as §1

[9] = system: sugar beet; experiment: Test B pre/postemergence sugar beet; type: in vivo, Beta vulgaris
How it was run: as §1

[10] = system: wheat; experiment: Test B pre/postemergence wheat; type: in vivo, Triticum aestivum
How it was run: as §1

[11] = system: wild oat; experiment: Test B pre/postemergence wild oat; type: in vivo, Avena fatua
How it was run: as §1

[12] = system: purple nutsedge; experiment: Test B pre/postemergence purple nutsedge; type: in vivo, Cyperus rotundus
How it was run: as §1

[13] = system: rice; experiment: Test B flood test rice; type: in vivo, Oryza sativa
How it was run: (§2)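 Each value is a visual injury score relative to controls, with 10 meaning complete control and 0 no effect. Evaluation took place twelve to sixteen days after the 2-leaf-stage plants were treated and kept in the greenhouse.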

[14] = system: smallflower flatsedge; experiment: Test B flood test smallflower flatsedge; type: in vivo, Cyperus difformis
How it was run: as §2

[15] = system: duck salad; experiment: Test B flood test duck salad; type: in vivo, Heteranthera limosa
How it was run: as §2

[16] = system: bamyardgrass; experiment: Test B flood test barnyardgrass; type: in vivo, Echinochloa crus-galli
How it was run: as §2

[17] = Postemergence, Rate 62 g/ha, scale 0 to 10, 0 is no effect, 10 is complete control
[18] = Postemergence, Rate 250 g/ha, scale 0 to 10, 0 no effect, 10 complete control
[19] = Preemergence, Rate 62 g/ha, scale 0 to 10 (0 no effect, 10 complete control)
[20] = Preemergence, Rate 125 g/ha, scale 0 to 10 (0 no effect, 10 complete control)
[21] = Preemergence, Rate 250 g/ha, scale of 0 to 10 where 0 is no effect and 10 is complete control
[22] = Preemergence, Rate 500 g/ha, scale 0 (no effect) to 10 (complete control)
[23] = Rate 125 g/ha, Postemergence, scale 0 to 10, 0 no effect, 10 complete control
[24] = Rate 500 g/ha, Postemergence, scale 0 to 10, 0 no effect, 10 complete control
[25] = Rate 125 g/ha, Postemergence section (flood test species), scale 0 to 10, 0 no effect, 10 complete control
[26] = Rate 500 g/ha, listed under Postemergence (flood test species), scale 0 to 10, 0 no effect, 10 complete control
[27] = flood test, listed under Postemergence, Rate 250 g/ha, scale 0 to 10, 0 no effect, 10 complete control

CC(C)N(C(=O)n1oc(=O)n(Cc2ccccc2)c1=O)c1ccc(F)cc1F [Compound 79]
B. signalgrass plant response rating [1, 17]: 0 | B. signalgrass plant response rating [1, 18]: 0 | B. signalgrass plant response rating [1, 19]: 2 | Plant response rating, B. signalgrass [1, 20]: 0 | Plant response rating, B. signalgrass [1, 21]: 3 | B. signalgrass plant response rating [1, 22]: 5 | B. signalgrass plant response rating [1, 23]: 0 | B. signalgrass plant response rating ([1]; Rate 500 g/ha, Postemergence, scale of 0 to 10 where 0 is no effect and 10 is complete control): 0 | Cocklebur plant response rating [2, 17]: 0 | Cocklebur plant response rating [2, 18]: 2 | Cocklebur plant response rating [2, 19]: 0 | Plant response rating, Cocklebur [2, 20]: 0 | Plant response rating, Cocklebur [2, 21]: 0 | Cocklebur plant response rating [2, 22]: 0 | Cocklebur plant response rating [2, 23]: 0 | Cocklebur plant response rating [2, 24]: 2 | Corn plant response rating [3, 17]: 0 | Corn plant response rating [3, 18]: 0 | Corn plant response rating [3, 19]: 0 | Plant response rating, Corn [3, 20]: 0 | Plant response rating, Corn [3, 21]: 0 | Corn plant response rating [3, 22]: 0 | Corn plant response rating [3, 23]: 0 | Corn plant response rating [3, 24]: 0 | Crabgrass plant response rating [4, 17]: 3 | Crabgrass plant response rating [4, 18]: 4 | Crabgrass plant response rating [4, 19]: 2 | Plant response rating, Crabgrass [4, 20]: 7 | Plant response rating, Crabgrass [4, 21]: 9 | Crabgrass plant response rating [4, 22]: 10 | Crabgrass plant response rating [4, 23]: 4 | Crabgrass plant response rating [4, 24]: 8 | Giant foxtail plant response rating [5, 17]: 0 | Giant foxtail plant response rating [5, 18]: 3 | Giant foxtail plant response rating [5, 19]: 4 | Plant response rating, Giant foxtail [5, 20]: 8 | Plant response rating, Giant foxtail [5, 21]: 9 | Giant foxtail plant response rating [5, 22]: 9 | Giant foxtail plant response rating [5, 23]: 2 | Giant foxtail plant response rating [5, 24]: 4 | Morningglory plant response rating [6, 17]: 5 | Morningglory plant response rating [6, 18]: 7 | Morningglory plant response rating [6, 19]: 0 | Plant response rating, Morningglory [6, 20]: 0 | Plant response rating, Morningglory [6, 21]: 0 | Morningglory plant response rating [6, 22]: 0 | Morningglory plant response rating [6, 23]: 5 | Morningglory plant response rating [6, 24]: 8 | Redroot pigweed plant response rating [7, 17]: 0 | Redroot pigweed plant response rating [7, 18]: 3 | Redroot pigweed plant response rating [7, 19]: 0 | Plant response rating, Redroot pigweed [7, 20]: 4 | Plant response rating, Redroot pigweed [7, 21]: 7 | Redroot pigweed plant response rating [7, 22]: 10 | Redroot pigweed plant response rating [7, 23]: 0 | Redroot pigweed plant response rating [7, 24]: 4 | Rape plant response rating [8, 17]: 0 | Rape plant response rating [8, 18]: 0 | Rape plant response rating [8, 19]: 0 | Plant response rating, Rape [8, 20]: 0 | Plant response rating, Rape [8, 21]: 0 | Rape plant response rating [8, 22]: 0 | Rape plant response rating [8, 23]: 0 | Rape plant response rating [8, 24]: 3 | Sugarbeets plant response rating [9, 17]: 3 | Sugarbeets plant response rating [9, 18]: 4 | Sugarbeets plant response rating [9, 19]: 0 | Plant response rating, Sugarbeets [9, 20]: 1 | Plant response rating, Sugarbeets [9, 21]: 1 | Sugarbeets plant response rating [9, 22]: 2 | Sugarbeets plant response rating [9, 24]: 6 | Wheat plant response rating [10, 17]: 0 | Wheat plant response rating [10, 18]: 0 | Wheat plant response rating [10, 19]: 0 | Plant response rating, Wheat [10, 20]: 0 | Plant response rating, Wheat [10, 21]: 0 | Wheat plant response rating [10, 22]: 2 | Wheat plant response rating [10, 23]: 0 | Wheat plant response rating [10, 24]: 0 | Wild oats plant response rating [11, 17]: 0 | Wild oats plant response rating [11, 18]: 0 | Wild oats plant response rating [11, 19]: 0 | Plant response rating, Wild oats [11, 20]: 0 | Plant response rating, Wild oats [11, 21]: 3 | Wild oats plant response rating [11, 22]: 4 | Wild oats plant response rating [11, 23]: 0 | Wild oats plant response rating [11, 24]: 0 | Nutsedge plant response rating [12, 17]: 0 | Nutsedge plant response rating [12, 18]: 0 | Nutsedge plant response rating [12, 19]: 0 | Plant response rating, Nutsedge [12, 20]: 0 | Plant response rating, Nutsedge [12, 21]: 0 | Nutsedge plant response rating [12, 22]: 0 | Nutsedge plant response rating [12, 23]: 0 | Nutsedge plant response rating [12, 24]: 0 | Rice plant response rating [13, 17]: 0 | Rice plant response rating [13, 25]: 0 | Rice plant response rating [13, 26]: 3 | Rice plant response rating [13, 27]: 0 | S. Flatsedge plant response rating [14, 17]: 0 | S. Flatsedge plant response rating [14, 25]: 0 | S. Flatsedge plant response rating [14, 26]: 10 | S. Flatsedge plant response rating [14, 27]: 4 | Ducksalad plant response rating [15, 17]: 0 | Ducksalad plant response rating [15, 25]: 0 | Ducksalad plant response rating [15, 26]: 3 | Ducksalad plant response rating [15, 27]: 0 | Barnyardgrass plant response rating [16, 17]: 0 | Barnyardgrass plant response rating [16, 25]: 0 | Barnyardgrass plant response rating [16, 26]: 9 | Barnyardgrass plant response rating [16, 27]: 3
